Measured values from ChEMBL document CHEMBL1201862, “PubChem BioAssay data set” (2004).
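Step 1: Grow cells in 96-well plates. Step 2: Expose to compound for 48 hours at 5 concentrations. Step 3: Interpolate endpoints linearly; if unreached, use highest concentration. GI50 = concentration required for 50% inhibition of growth.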 The source made the active and inactive calls. Cut-off read from the data, not from the text of the source: active = GI50 up to about 1.1 µM and inactive = higher.

Assays:
Experiment in all cases: DTP human tumour cell line panel, 48 h
[1] = system: 786-0
[2] = system: A498
[3] = system: A549
[4] = system: ACHN
[5] = system: CAKI-1
[6] = system: CCRF-CEM
[7] = system: COLO 205
[8] = system: DLD-1
[9] = system: DMS-114
[10] = system: EKVX
[11] = system: HCT-116
[12] = system: HCT-15
[13] = system: HOP-92
[14] = system: HT-29
[15] = system: IGROV-1
[16] = system: K562
[17] = system: KM12
[18] = system: LOX IMVI
[19] = system: LXFL 529
[20] = system: MOLT-4
[21] = system: Malme-3M
[22] = system: NCI-H226
[23] = system: NCI-H23
[24] = system: NCI-H460
[25] = system: NCI-H522
[26] = system: OVCAR-4
[27] = system: OVCAR-5
[28] = system: OVCAR-8
[29] = system: RPMI-8226
[30] = system: RXF 393
[31] = system: SF-268
[32] = system: SF-295
[33] = system: SF-539
[34] = system: SK-MEL-28
[35] = system: SK-MEL-2
[36] = system: SK-MEL-5
[37] = system: SK-OV-3
[38] = system: SN12C
[39] = system: SNB-19
[40] = system: SNB-78
[41] = system: SW-620
[42] = system: U-251
[43] = system: UACC-257
[44] = system: UACC-62
[45] = system: UO-31
[46] = system: DMS-273
[47] = system: HCC 2998
[48] = system: HL-60
[49] = system: HOP-62
[50] = system: KM-20L2
[51] = system: M14
[52] = system: M19-MEL
[53] = system: OVCAR-3
[54] = system: SNB-75
[55] = system: TK-10

## COc1cc(/C=N/N=C(\N)NO)ccc1O
[1]
  GI50: > 10 µM (inactive)
[2]
  GI50: 44.9 µM (inactive)
[3]
  GI50: 47.3 µM (inactive)
[4]
  GI50: 44.1 µM (inactive)
[5]
  GI50: 28.6 µM (inactive)
[6]
  GI50: > 100 µM (inactive)
[7]
  GI50: > 100 µM (inactive)
[8]
  GI50: > 100 µM (inactive)
[9]
  GI50: 39.9 µM (inactive)
[10]
  GI50: 71.9 µM (inactive)
[11]
  GI50: 69.8 µM (inactive)
[12]
  GI50: 50 µM
[13]
  GI50: > 100 µM (inactive)
[14]
  GI50: 67.8 µM (inactive)
[15]
  GI50: > 100 µM (inactive)
[16]
  GI50: 33.3 µM (inactive)
[17]
  GI50: 77.1 µM (inactive)
[18]
  GI50: 30.5 µM (inactive)
[19]
  GI50: 28.6 µM (inactive)
[20]
  GI50: 65.9 µM (inactive)
[21]
  GI50: 75.9 µM (inactive)
[22]
  GI50: 14.1 µM (inactive)
[23]
  GI50: 57.1 µM (inactive)
[24]
  GI50: 38.8 µM (inactive)
[25]
  GI50: 46.3 µM (inactive)
[26]
  GI50: > 100 µM (inactive)
[27]
  GI50: 18.1 µM (inactive)
[28]
  GI50: 63.7 µM (inactive)
[29]
  GI50: > 100 µM (inactive)
[30]
  GI50: 31.5 µM (inactive)
[31]
  GI50: 56 µM (inactive)
[32]
  GI50: 26.1 µM (inactive)
[33]
  GI50: 46.3 µM (inactive)
[34]
  GI50: 26 µM (inactive)
[35]
  GI50: 69.3 µM (inactive)
[36]
  GI50: 53 µM (inactive)
[37]
  GI50: 78.7 µM (inactive)
[38]
  GI50: > 100 µM (inactive)
[39]
  GI50: > 100 µM (inactive)
[40]
  GI50: > 100 µM (inactive)
[41]
  GI50: 68.2 µM (inactive)
[42]
  GI50: 91.2 µM (inactive)
[43]
  GI50: > 100 µM (inactive)
[44]
  GI50: 30.4 µM (inactive)
[45]
  GI50: 41.4 µM (inactive)

## CC1C(c2ccccc2)N(C)C(c2ccccc2)C(C)C1(O)c1ccccc1 (centres undefined)
[1]
  GI50: > 100 µM (inactive)
[2]
  GI50: 42.3 µM (inactive)
[3]
  GI50: 99.5 µM (inactive)
[4]
  GI50: > 100 µM (inactive)
[5]
  GI50: > 100 µM (inactive)
[6]
  GI50: > 100 µM (inactive)
[7]
  GI50: 20 µM (inactive)
[8]
  GI50: > 100 µM (inactive)
[9]
  GI50: > 100 µM (inactive)
[46]
  GI50: 40.7 µM (inactive)
[10]
  GI50: > 100 µM (inactive)
[47]
  GI50: > 100 µM (inactive)
[11]
  GI50: 26.4 µM (inactive)
[12]
  GI50: 84.1 µM
[48]
  GI50: 31.8 µM (inactive)
[49]
  GI50: > 100 µM (inactive)
[13]
  GI50: 83.9 µM (inactive)
[14]
  GI50: 55.8 µM (inactive)
[15]
  GI50: > 100 µM (inactive)
[16]
  GI50: > 100 µM (inactive)
[50]
  GI50: > 100 µM (inactive)
[17]
  GI50: 77.8 µM (inactive)
[18]
  GI50: 37.2 µM (inactive)
[19]
  GI50: > 100 µM (inactive)
[51]
  GI50: > 100 µM (inactive)
[52]
  GI50: 47.4 µM (inactive)
[20]
  GI50: > 100 µM (inactive)
[21]
  GI50: > 100 µM (inactive)
[22]
  GI50: 44.2 µM (inactive)
[23]
  GI50: > 100 µM (inactive)
[24]
  GI50: 34.4 µM (inactive)
[25]
  GI50: > 100 µM (inactive)
[53]
  GI50: 51.4 µM (inactive)
[26]
  GI50: > 100 µM (inactive)
[27]
  GI50: > 100 µM (inactive)
[28]
  GI50: > 100 µM (inactive)
[30]
  GI50: > 100 µM (inactive)
[31]
  GI50: > 100 µM (inactive)
[32]
  GI50: 46.7 µM (inactive)
[33]
  GI50: > 100 µM (inactive)
[34]
  GI50: > 100 µM (inactive)
[35]
  GI50: 79.6 µM (inactive)
[36]
  GI50: > 100 µM (inactive)
[37]
  GI50: > 100 µM (inactive)
[38]
  GI50: > 100 µM (inactive)
[39]
  GI50: > 100 µM (inactive)
[54]
  GI50: 73.3 µM (inactive)
[40]
  GI50: > 100 µM (inactive)
[41]
  GI50: 54 µM (inactive)
[55]
  GI50: > 100 µM (inactive)
[42]
  GI50: > 100 µM (inactive)
[43]
  GI50: > 100 µM (inactive)
[44]
  GI50: > 100 µM (inactive)
[45]
  GI50: > 100 µM (inactive)
